The target in one data set is T1, MARK4 (Homo sapiens, UniProt Q96L34).
T1 construct: MARK4 protein was expressed and purified by following previous protocols; made in house
T1 sequence (Q96L34 1-752): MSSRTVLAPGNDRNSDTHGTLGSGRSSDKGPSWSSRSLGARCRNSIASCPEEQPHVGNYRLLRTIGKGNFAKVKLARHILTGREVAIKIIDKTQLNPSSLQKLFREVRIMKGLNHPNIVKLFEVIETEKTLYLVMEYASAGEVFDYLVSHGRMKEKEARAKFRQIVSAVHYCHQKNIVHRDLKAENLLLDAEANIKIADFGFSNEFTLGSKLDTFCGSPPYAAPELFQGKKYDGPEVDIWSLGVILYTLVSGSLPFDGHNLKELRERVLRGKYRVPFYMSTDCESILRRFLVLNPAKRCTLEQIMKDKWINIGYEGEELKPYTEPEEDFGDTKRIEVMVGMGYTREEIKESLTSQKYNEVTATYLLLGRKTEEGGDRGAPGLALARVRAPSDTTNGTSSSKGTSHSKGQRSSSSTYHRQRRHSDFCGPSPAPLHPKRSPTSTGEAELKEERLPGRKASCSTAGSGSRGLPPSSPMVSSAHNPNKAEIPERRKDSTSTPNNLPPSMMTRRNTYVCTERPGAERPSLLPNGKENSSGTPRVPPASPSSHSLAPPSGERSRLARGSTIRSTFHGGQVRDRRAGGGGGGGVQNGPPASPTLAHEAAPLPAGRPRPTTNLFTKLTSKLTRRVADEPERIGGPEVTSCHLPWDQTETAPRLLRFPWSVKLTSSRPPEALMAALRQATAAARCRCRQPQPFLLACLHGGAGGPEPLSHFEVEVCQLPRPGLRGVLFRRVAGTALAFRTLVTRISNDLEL
Put plainly: MARK4 ATPase enzyme inhibition assay. The class given is biochemical. The method, then: MARK4 protein was expressed and purified by following previous protocols.[27,37] The purity of the protein was further confirmed by a single band shown by SDS PAGE. ATPase assay was carried out to evaluate the enzyme activity of MARK4 in the presence of selected hydrazone derivatives. The activity of MARK4 was studied with the increasing concentration of each selected hydrazone derivative by following our published protocol.[24,38]
To further evaluate the inhibitory potential of selected compounds with MARK4, enzyme inhibition assay was performed (at a single dose of 10 μM). […] Thus, these two compounds were further selected and evaluated with MARK4 in a concentration-dependent manner. […] The percent inhibition of ATPase activity was plotted as a function of ligand concentration and used to estimate IC50 (concentration of 50% inhibition, Fig. 1A).

Another data set has as its system A549 cells. In words: MTT cell proliferation assay, A549. It counts as cell-based. Particulars: Homo sapiens, read-out: IC50, cell proliferation, A549 cells. As for the experimental part: (§1) Human cell lines (HEK-293, A549 and MCF-7) were seeded and maintained in a medium supplemented with DMEM along with 10% heat-inactivated fetal bovine serum (Gibco) and 1% penicillin, streptomycin solution (Gibco), cultured in a 5% CO2 humidified incubator at 37 °C. Cell cultures were maintained and trypsinized regularly, not for more than 30 passages. MTT assay was carried out to see the effect of selected hydrazone compound treatment on the viability of non-cancerous (HEK-293) and cancerous cell lines (A549 and MCF-7) as per described method.[22,24] In brief, 6000–7000 cells per well were seeded in a 96-well plate and after 24 h growth, the cells were treated with increasing concentrations (0–200 μM) of each hydrazone (final volume of 200 μL) for 48 h at 37 °C in a humidified chamber. After 48 h, MTT was added (20 μL solution from 5 mg mL^−1 stock solution prepared in phosphate buffer saline, pH 7.4) to each well and plates were further incubated for 4–5 h at 37 °C in a CO2 incubator. The supernatant was aspirated and the formazan crystals were dissolved in 150 μL of DMSO. The absorbance (A) of final products was measured using multiplate ELISA reader (BioRad) at 570 nm. The percentage of cell viability was calculated and IC50 (50% inhibitory concentration) values of each hydrazone derivative were estimated (paclitaxel was taken as a positive control for cell proliferation studies).
(Tetrazolium assays rely on reduction of a dye to a coloured formazan, in cell work by metabolically active cells.)

For the next data set, the system named is HEK293 cells. Put plainly: MTT cell viability assay, non-cancerous HEK293. It counts as cell-based, human. Particulars: at the IC50 or active concentration, compared with cancerous cells. The method, then:
as §1

The subject of data set [1] is MARK4 and p-tau in MCF-7 cells. In words: Immunoblotting of MARK4 and p-tau in treated MCF-7 cells. The class given is cell-based, human. The note with it: IC50 concentration, vs control. The method, then:
The compound treated cell line samples were lysed in RIPA cell lysis buffer (Thermo Fisher Scientific, USA) in an ice-cold condition using ultrasonication. Total protein was isolated and protein estimation was performed using Bicinchoninic Acid Assay (BCA-protein estimation kit). Nearly 30–40 μg of whole protein lysate was diluted with 6× Laemmli's buffer, boiled for 3–5 min and resolved using 10–12% SDS-polyacrylamide electrophoresis under reducing conditions. The resolved polypeptides were transferred to polyvinylidene fluoride (PVDF) membrane through blotting, peptide-specific primary antibodies were used for identification and horseradish peroxidase coupled conjugates were used for visualization using luminol as a chemiluminescent substrate.[40]
Next, we tried to see the inhibition potential of these molecules at the cellular level. Cells were treated with IC50 concentration of each molecule and processed for the expression studied of MARK4 and p-tau (substrate of MARK4). […] Phosphorylation of tau correspondingly decreases in the treated cells as compared to control (Fig. 1B).
For orientation: Immunoblotting shows a protein as a band on a membrane.

[2] abbreviates: bound stated after screen at a single dose of 10 μM, read-out: IC50, MARK4 enzyme inhibition.
Where [3] appears, read: cell-free, concentration-dependent, read-out: IC50, inhibition of ATPase activity of MARK4.

Results on two compounds are retold here after paper PMC9054212, “Discovery of 4-(2-(dimethylamino)ethoxy)benzohydrazide derivatives as prospective microtubule affinity regulating kinase 4 inhibitors” (RSC Advances, 2020).

Read-outs that look alike come from different tables or passages of the source. A value given as a limit tells only on which side of the number the result lay.

As for `Cc1cc(C)c(C=NNC(=O)c2ccc(OCCN(C)C)cc2)c(C)c1` [H19], the IC50 is under 1000 nM at MARK4 (setting [2]); 215 nM at MARK4 (setting [3]); 61.5 µM in the data set on A549 cells (A549, 48 h). For the same compound, the “cytotoxicity to non-cancerous cells” value in the data set with HEK293 cells is listed as “less toxic”. In addition, the “protein level of MARK4” value in data set [1] was “decreases”. Besides, in data set [1], the “protein level of p-tau” value is on record as “decreases”.

`CN(C)CCOc1ccc(C(=O)NN=Cc2ccc(Cl)cc2)cc1` [H4]: the IC50 on MARK4 (setting [2]) is under 1000 nM; at MARK4 (setting [3]), 149 nM; in the data set with A549 cells (A549, MTT, 48 h, 0–200 μM), 45.2 µM. In addition, the “cytotoxicity to non-cancerous cells” value with HEK293 cells is recorded as “less toxic”. Also, the “protein level of MARK4” value in data set [1] is reported as “decreases”. The “protein level of p-tau” value in data set [1] was “decreases”.
